In patent US20060234390A1, “Process for determining target function and identifying drug leads” (priority 2002, published 2006):
“Also recorded” adds a separate entry of the source.

Tests used:
[1] = target: T1, P38 MAP kinase (Homo sapiens, UniProt Q16539); conditions: stated as a known property of the ligand; cited from earlier work
T1 construct: purchased Sigma

[2] = target: T1, P38 MAP kinase; test: HPLC based Chemical Array binding assay (protein-bound vs free compounds, UV and mass spectrum); conditions: for identity of the compound extracted from the mixture and released from the protein (mass spectrum): 5 uM P38 MAP kinase + 5 uM mixture of Quinine and 86002
Protocol: (§1) Drug-like chemical compounds representing a collection of drug-like chemical scaffolds (Sigma-Aldrich, ICN, Calbiochem) were weighed and mixed to a final concentration of 20 uM each in 50 mM ammonium acetate pH 7, 10% methanol. 1 uM to 20 uM tubulin or P38 MAP kinase (Sigma) were dispensed into HPLC low volume sample cuvettes (Waters) and mixed with 0.5 uM to 20 uM compounds. After mixing and a 15 minute 37° C. incubation, the cuvettes were placed on ice and injected into the HPLC (Waters 2690) using an autoinjector (Waters) onto a 150 mm×2.1 mm ID Pinkerton GFF II column (Regis Technologies) for dual size exclusion and phase separation with a 50 mM ammonium acetate, 10% methanol running buffer.
(§2) We optimized the column dimensions and the choice of resin to maximize the separation of the compounds bound to the protein targets from the unbound compounds. Resins which elute protein in the void volume and small column diameters and lengths which minimize the void volume were used. Such columns minimize the amount of dilution of the protein sample and minimize the time required for each assay, thereby minimizing the amount of bound compound that dissociates from the protein (as governed by the Koff rate). […] A number of HPLC columns, including the Regis 150 mm×2.1 mm GFF II column, a 1.0 mm×100 mm YMC Diol column, a 2.1 mm×150 mm Phenomonex Polyhydroxymethacrylate (Polysep) column, and a Jordi 2.1×150 mm Divinyl Benzene column, were tested. Similarly, other running buffers were tested in which the salt and methanol concentration were varied, and the ratio of protein target to small compounds in the binding reaction was varied from 1000:1 to 1:1000. Resins representative of different classes were tested for their ability to separate the protein fraction from the drug-like small molecule compounds, and to minimize the cycle time for all of the compounds to elute from the column. These characteristics of the columns are determined by surface properties and limitations on flow rates due to resins collapsing under backpressure. […] In applications where a longer cycle time (e.g., over 10 minutes per run) is acceptable, any of the above columns or a series of the above columns may be used.
(§3) For shorter cycle times, other columns may be used.

[3] = tested on: tubulin; test: as above; conditions: tubulin 0, 5 and 20 uM; 10 compound mixture, 0.5 uM each; GFF II column
Protocol: as §1, §2, §3

[4] = P38 0, 2.5, 5 and 10 uM, 86002 and quinine 5 uM each, Diol column

T1 sequence (Q16539 whole entry): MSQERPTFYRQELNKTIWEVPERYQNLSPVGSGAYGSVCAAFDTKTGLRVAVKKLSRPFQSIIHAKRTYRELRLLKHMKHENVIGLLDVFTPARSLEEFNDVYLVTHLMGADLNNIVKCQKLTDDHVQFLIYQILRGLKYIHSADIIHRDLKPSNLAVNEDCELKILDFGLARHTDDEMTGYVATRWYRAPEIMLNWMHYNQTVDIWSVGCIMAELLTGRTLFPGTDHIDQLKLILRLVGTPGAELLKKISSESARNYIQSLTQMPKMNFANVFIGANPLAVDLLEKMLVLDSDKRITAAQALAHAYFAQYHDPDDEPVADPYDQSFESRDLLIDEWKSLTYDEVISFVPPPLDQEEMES

Row | mass spectrum of the collected protein fraction compared with the standard ([2]; 5 uM P38 MAP kinase + 5 uM 86002, Diol column) | reduction of the free compound UV peak with increasing P38 MAP kinase ([2]; P38 0, 3.5 and 5 uM, 10 compound mixture, 0.5 uM each, GFF II column) | level of the characteristic peaks in the mass spectrum of the protein fraction ([2]; P38, 10 compound mixture, 0.5 uM each, GFF II column) | reduction of the free compound UV peak with increasing tubulin [3] | SMILES | affinity for the P38 MAP kinase protein target [1] | identity of the compound extracted from the mixture and released from the protein (mass spectrum) [2] | reduction of the free compound UV peak with increasing P38 MAP kinase [2, 4] | level of the characteristic peak in the mass spectrum of the protein fraction ([2]; P38 2 uM, 100 compound mixture, 20 uM each, GFF II column)
1 | corresponded to the 86002 standard | concentration dependent reduction | at a level far higher than other peaks | negligible reduction | Fc1ccc(-c2nc3n(c2-c2ccncc2)CCS3)cc1 [SKB86002] | micromolar affinity | identified as 86002 | concentration dependant reduction | binds and extracts; also recorded: at a level far higher than other peaks
2 | – | – | – | – | C=C[C@H]1CN2CC[C@H]1C[C@H]2[C@H](O)c1ccnc2ccc(OC)cc12.Cl [quinine, quinine monohydrochloride] | – | not quinine | negligible reduction | –
